Columns and labels:
[1] = system: helminth infestation diseases; assay: Helminthicide action in laboratory and field conditions on farm animals; type: in vivo, sheep, cows, and other farm animals
Source text: The helminthicide action has been studied in laboratory and field conditions on sheep, cows, and other farm animals of different age and having various helminth infestation diseases. The course of treatment comprises a single oral administration of the preparation in spring and a repeated single administration in autumn. The preparation efficiency is 95 to 100% for the cured animals.

[2] = meat, milk, and wool
Source text: The known preparations are efficient only in respect to the imaginal forms of certain helminth infestation diseases. The novel preparation based on thiodiphenylamine cupric chloride complex salt is not toxic and is convinient in use.

[3] = Lethal dose / toxicity in farm animals; type: in vivo; set-up: lethal dose LD50 / LD100: unit not given here

complex salt of thiodiphenylamine cupric chloride
efficiency for curing various helminth infestation diseases in pre-imaginal and imaginal forms ([1]; pre-imaginal and imaginal forms): highly efficient for curing various helminth infestation diseases in pre-imaginal and imaginal forms
preparation efficiency for the cured animals ([1]; single oral administration in spring and repeated single administration in autumn): 95 to 100%
productivity of farm animals [2]: enhances productivity of farm animals
LD100 ([3]; all varieties of farm animals): 1,200
lethal dose LD50 ([3]; all varieties of farm animals): 1,000
toxicity ([3]; in vivo): not toxic
